Measurements published in patent publication EP1712550A2, “Substituted triazole diamine derivatives as kinase inhibitors” (priority 2000, dated 2002).

How the values were obtained:
[1] = system: HeLa cervical adenocarcinoma; assay: Inhibition of Cell Proliferation, 14C-thymidine incorporation, HeLa; format: cell-based; details: Homo sapiens; Cell Line HeLa
Protocol: (§1) The ability of a test compound to inhibit the proliferation of cell growth was determined by measuring incorporation of ^14C-labelled thymidine into newly synthesized DNA within the cells. This method was used on cell lines derived from carcinomas originating from several tissues such as HeLa cervical adenocarcinoma (American Type Culture Collection (ATCC), Virginia, Cat. #CCL-2), A375 malignant melanoma (ATCC CRL-1619), SK-OV-3 ovarian adenocarcinoma (ATCC HTB-77) HCT-116 colon carcinoma (CCL-247), PC-3 prostate adenocarcinoma (ATCC CRL-1435), and MDA-MB-231 (Xenogen Corp.) In this way the effect of a compound on cell growth of cells with many different phenotypes can be determined. Cells were trypsinized and counted and 3000-8000 cells were added to each well of a 96-well CytoStar tissue culture treated scintillating microplate (Amersham #RPNQ0160) in complete medium in a volume of 100 µl. Cells were incubated for 24 hours in complete medium at 37°C in an atmosphere containing 5% CO2. Next, 1 µl of test compound in 100% DMSO was added to the wells of the plate. DMSO only was added to control wells. Cells were incubated for 24 more hours in complete medium at 37°C in an atmosphere containing 5% CO2. Methyl^14C-thymidine 56 mCi/mmol (NEN #NEC568 or Amersham #CFA532) was diluted in complete medium and 0.2 uCi/well was added to each well of the CytoStar plate in a volume of 20 ul. The plate was incubated for 24 hours at 37°C plus 5% CO2 in drug plus ^14C-thymidine. The contents of the plate were discarded into a ^14C radioactive waste container by inverting the plate and the plate was washed twice with 200 µl PBS. 200 µl of PBS is added to each well. The top of the plate was sealed with a transparent plate sealer and a white plate backing sealer (Packard #6005199) was applied to the bottom of the plate. The degree of methyl ^14C-thymidine incorporation was quantified on a Packard Top Count.

[2] = system: A375 malignant melanoma; assay: Inhibition of Cell Proliferation, 14C-thymidine incorporation, A375; format: cell-based; details: Homo sapiens, A-375; Cell Line A375
Protocol: as §1

[3] = system: HCT-116 colon carcinoma; assay: Inhibition of Cell Proliferation, 14C-thymidine incorporation, HCT-116; format: cell-based; details: Homo sapiens; Cell Line HCT-116
Protocol: as §1

[4] = system: PC-3 prostate adenocarcinoma; assay: Inhibition of Cell Proliferation, 14C-thymidine incorporation, PC-3; format: cell-based; details: Cell Line PC-3
Protocol: as §1

[5] = biological target: T1, VEGF-R (vascular endothelial growth factor receptor-2) (Rattus norvegicus, UniProt O08775); assay: VEGF-R Screening Assay; format: biochemical; details: read-out: Kinase Assay (IC50 uM) VEGF-R
T1 construct: 6xHis (polyhistidine) (N)
T1 sequence (O08775 786-1343): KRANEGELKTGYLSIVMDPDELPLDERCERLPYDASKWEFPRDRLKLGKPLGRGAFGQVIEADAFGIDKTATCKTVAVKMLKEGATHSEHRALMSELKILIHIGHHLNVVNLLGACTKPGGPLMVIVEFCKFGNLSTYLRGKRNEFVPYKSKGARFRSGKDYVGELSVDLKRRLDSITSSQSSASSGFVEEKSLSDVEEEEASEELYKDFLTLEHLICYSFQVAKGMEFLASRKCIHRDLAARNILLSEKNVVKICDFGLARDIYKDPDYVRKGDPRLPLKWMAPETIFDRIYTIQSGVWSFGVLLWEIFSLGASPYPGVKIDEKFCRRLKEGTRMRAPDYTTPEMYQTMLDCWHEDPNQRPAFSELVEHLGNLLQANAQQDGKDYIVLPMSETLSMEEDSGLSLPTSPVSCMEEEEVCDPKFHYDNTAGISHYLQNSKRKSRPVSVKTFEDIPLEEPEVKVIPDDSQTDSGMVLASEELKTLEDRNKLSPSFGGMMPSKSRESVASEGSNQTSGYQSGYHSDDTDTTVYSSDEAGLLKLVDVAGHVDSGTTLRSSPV
Protocol: (§2) 70 µL of the kinase reaction mixture was dispensed into the well of a streptavidin coated FlashPlate™ (Cat. # SMP103, NEN, Boston, MA). Then 1 µL of test compound stock in 100% DMSO was added to the wells resulting in a final concentration of 1% DMSO in the reaction with a 100 µL final reaction volume. Next, soluble rat tyrosine kinase containing an N-terminal 6XHIS tag was diluted in 50 mM Tris-HCl pH=8.0, 0.1% BSA at a concentration of 5 ng per µL and 30 µL (150 ng enzyme per test well) was added to each well to initiate the reaction. The reaction was incubated for one hour at 30°C. At the end of the 1-hour incubation, the reaction was terminated by aspirating the reaction mixture from the plate and washing the wells twice with PBS containing 100 mM EDTA. The PLC1 biotinylated peptide substrate became immobilized on the Flashplate™ and the incorporation of ^33P-γ-ATP was measured by reading the plate on a scintillation counter. Inhibition of the enzymatic activity of the VEGF-R was measured by observing a reduced amount of ^33P-γ-ATP incorporated into the immobilized peptide. […]

[6] = biological target: T2, HER2 (human epidermal growth factor receptor-2) (Homo sapiens, UniProt P04626); assay: Kinase Selectivity Assay HER2; format: biochemical; details: read-out: Kinase Assay (IC50 uM) HER2 Kinase
T2 construct: begins at amino acid 676 followed by the remainder of the HER2 cytoplasmic domain; polyhistidine (N)
T2 sequence (P04626 676-1255 limits assumed): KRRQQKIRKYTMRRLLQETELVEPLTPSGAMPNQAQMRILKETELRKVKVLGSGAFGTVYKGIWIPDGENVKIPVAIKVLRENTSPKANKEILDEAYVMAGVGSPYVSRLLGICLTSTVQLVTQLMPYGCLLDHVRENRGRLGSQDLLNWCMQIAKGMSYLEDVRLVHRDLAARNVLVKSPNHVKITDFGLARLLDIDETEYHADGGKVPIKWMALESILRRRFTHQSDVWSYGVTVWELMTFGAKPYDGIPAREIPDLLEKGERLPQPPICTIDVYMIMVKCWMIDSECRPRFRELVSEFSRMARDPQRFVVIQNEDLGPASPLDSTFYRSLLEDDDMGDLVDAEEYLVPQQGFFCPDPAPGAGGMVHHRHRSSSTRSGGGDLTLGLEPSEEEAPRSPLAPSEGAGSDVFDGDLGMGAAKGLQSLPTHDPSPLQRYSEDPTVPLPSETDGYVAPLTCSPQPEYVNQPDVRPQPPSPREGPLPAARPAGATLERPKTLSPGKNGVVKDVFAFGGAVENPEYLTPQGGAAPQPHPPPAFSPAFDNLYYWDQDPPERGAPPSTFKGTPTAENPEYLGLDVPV

[7] = biological target: T3, EGFR (epidermal growth factor receptor) (Homo sapiens, UniProt P00533); assay: Kinase Selectivity Assay EGF-R; format: biochemical; details: read-out: Kinase Assay (IC50 uM) EGF-R
T3 construct: is purified from human A431 cell membranes (Sigma, St. Louis, MO, Cat.# E3641); purchased Sigma, St. Louis, MO E3641; host or cells: human A431 cell membranes (endogenous protein)
T3 sequence (P00533 25-1210): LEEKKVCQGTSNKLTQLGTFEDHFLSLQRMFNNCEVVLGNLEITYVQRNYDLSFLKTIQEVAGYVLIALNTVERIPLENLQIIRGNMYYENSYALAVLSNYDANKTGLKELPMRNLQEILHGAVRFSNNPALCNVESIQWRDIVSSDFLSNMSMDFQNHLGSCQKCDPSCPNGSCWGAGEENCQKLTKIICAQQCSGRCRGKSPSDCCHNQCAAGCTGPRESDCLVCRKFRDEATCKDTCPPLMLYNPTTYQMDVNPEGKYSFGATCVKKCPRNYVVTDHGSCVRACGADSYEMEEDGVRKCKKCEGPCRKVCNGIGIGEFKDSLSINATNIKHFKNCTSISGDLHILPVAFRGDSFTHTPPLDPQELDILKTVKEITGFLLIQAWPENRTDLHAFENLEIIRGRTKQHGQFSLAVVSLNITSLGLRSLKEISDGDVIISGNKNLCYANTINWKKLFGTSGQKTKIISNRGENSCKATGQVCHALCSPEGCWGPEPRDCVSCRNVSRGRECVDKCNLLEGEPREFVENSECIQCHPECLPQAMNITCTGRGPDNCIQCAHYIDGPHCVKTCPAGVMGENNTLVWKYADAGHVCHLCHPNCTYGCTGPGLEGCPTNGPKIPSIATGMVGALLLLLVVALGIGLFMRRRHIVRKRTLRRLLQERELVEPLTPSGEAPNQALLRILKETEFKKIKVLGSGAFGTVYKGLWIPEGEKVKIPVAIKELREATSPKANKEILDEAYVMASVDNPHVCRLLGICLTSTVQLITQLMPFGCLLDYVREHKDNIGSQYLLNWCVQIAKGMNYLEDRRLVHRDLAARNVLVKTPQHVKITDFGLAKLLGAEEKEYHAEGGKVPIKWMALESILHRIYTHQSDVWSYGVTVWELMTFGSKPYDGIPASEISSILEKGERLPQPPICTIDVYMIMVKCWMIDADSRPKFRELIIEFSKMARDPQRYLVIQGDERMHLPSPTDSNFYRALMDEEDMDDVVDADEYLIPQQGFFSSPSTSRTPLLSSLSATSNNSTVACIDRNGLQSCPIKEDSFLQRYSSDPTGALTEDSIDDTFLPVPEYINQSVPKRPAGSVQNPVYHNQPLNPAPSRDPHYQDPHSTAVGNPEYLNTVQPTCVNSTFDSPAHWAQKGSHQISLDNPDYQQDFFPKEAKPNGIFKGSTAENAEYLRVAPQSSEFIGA

[8] = biological target: T4, CDK1:Cyclin-B (Homo sapiens, UniProt P06493); assay: CDK1 Screening Assay; format: biochemical; details: read-out: Kinase Assay (IC50 uM) CDK1
T4 construct: purchased New England Biolabs, Beverly, MA 6020; host or cells: insect cells
T4 sequence (P06493 whole entry): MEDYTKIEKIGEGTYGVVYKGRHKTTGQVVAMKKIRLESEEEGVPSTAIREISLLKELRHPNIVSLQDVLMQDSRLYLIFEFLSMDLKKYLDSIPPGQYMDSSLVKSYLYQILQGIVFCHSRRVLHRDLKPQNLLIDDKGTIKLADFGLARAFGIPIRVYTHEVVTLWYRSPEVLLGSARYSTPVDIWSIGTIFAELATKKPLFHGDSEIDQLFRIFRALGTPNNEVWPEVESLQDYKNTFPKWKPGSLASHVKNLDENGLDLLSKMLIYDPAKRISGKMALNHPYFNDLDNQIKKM
T4 sequence (P14635 whole entry partner): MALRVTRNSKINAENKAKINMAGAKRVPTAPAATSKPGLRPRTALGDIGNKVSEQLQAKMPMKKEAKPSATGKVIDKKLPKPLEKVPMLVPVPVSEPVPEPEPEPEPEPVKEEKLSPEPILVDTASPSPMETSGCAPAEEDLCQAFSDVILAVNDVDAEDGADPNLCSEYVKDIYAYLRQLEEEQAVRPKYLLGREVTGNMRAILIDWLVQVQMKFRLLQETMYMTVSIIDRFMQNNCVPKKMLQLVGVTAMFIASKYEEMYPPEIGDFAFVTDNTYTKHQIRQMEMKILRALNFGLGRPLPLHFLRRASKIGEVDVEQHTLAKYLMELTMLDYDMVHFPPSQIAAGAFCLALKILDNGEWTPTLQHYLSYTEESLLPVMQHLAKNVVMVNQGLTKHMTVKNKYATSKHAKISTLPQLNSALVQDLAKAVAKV
Protocol: as §2, with “100 µl” for “100 µL”, “Next, CDK1:Cyclin-B protein” for “Next, soluble rat tyrosine kinase containing an N-terminal 6XHIS tag”, “of 1” for “of 5”, “30 µl (30ng” for “30 µL (150 ng”, “The histone-H1” for “The PLC1”, “of CDK1” for “of the VEGF-R”

[9] = biological target: PKC (protein kinase-C); assay: Kinase Selectivity Assay PKC; format: biochemical, human
[10] = biological target: Insulin Receptor Kinase (Homo sapiens, UniProt P06213); assay: Kinase Selectivity Assay Insulin Receptor Kinase; format: biochemical; details: read-out: Kinase Assay (IC50 uM) Insulin R Kinase
Insulin Receptor Kinase, sequence (P06213 980-1352): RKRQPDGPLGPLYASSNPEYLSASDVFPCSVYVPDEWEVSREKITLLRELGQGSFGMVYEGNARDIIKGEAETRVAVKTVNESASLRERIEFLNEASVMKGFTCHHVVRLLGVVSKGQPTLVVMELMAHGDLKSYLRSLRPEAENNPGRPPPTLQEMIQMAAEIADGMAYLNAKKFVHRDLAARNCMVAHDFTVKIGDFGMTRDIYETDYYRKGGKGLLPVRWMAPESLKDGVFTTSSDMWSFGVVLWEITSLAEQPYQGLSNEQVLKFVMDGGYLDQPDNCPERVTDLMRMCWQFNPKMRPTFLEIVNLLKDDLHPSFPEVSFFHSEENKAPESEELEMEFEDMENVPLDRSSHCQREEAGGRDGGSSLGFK

[11] = biological target: T5, CDK2 in complex with cyclin A (Homo sapiens, UniProt P24941); assay: Kinase Selectivity Assay CDK2; format: biochemical
T5 construct: purchased Upstate Biotech, Lake Placid, NY

Row | SMILES | IC50 [5] [µM] | IC50 [6] [µM] | IC50 [7] [µM] | IC50 [8] [µM] | further results
1 | Cc1ccsc1C(=O)n1nc(Nc2ccc(S(N)(=O)=O)cc2)nc1N [Cpd 15, 4-[[5-amino-1-[(3-methyl-2-thienyl)carbonyl]-1H-1,2,4-triazol-3-yl]amino]-benzenesulfonamide] | – | – | – | – | IC50 [1]: 91 nM; IC50 [2]: 247 nM; IC50 [3]: 127 nM; IC50 [4]: 107 nM
2 | Nc1nc(Nc2ccc(S(N)(=O)=O)cc2)nn1C(=S)Nc1c(F)cccc1F [Cpd 66, 5-amino-3-[[4-(aminosulfonyl)phenyl]amino]-N-(2,6-difluorophenyl)-1H-1,2,4-triazole-1-carbothioamide] | – | – | – | – | IC50 [1]: 35 nM; IC50 [2]: 92 nM; IC50 [3]: 20 nM
3 | Cc1ccc(F)c(C(=O)n2nc(Nc3ccc(S(N)(=O)=O)cc3)nc2N)c1Cl [Cpd 69, 4-[[5-amino-1-(2-chloro-6-fluoro-3-methylbenzoyl)-1H-1,2,4-triazol-3-yl]amino]-benzenesulfonamide] | 0.685 | 0.139 | > 100 | – | IC50 [4]: 8 nM
4 | CNS(=O)(=O)c1ccc(Nc2nc(N)n(C(=O)c3c(F)ccc(C)c3F)n2)cc1 [Cpd 81, 4-[[5-amino-1-(2,6-difluoro-3-methylbenzoyl)-1H-1,2,4-triazol-3-yl]amino]-N-methyl-benzenesulfonamide] | 0.482 | 1.7 | > 100 | 0.018 | –
5 | Cc1ccsc1C(=O)n1nc(Nc2ccc(-n3cncn3)cc2)nc1N [Cpd 99, 1-[(3-methyl-2-thienyl)carbonyl]-N^3-[4-(1H-1,2,4-triazol-1-yl)phenyl]-1H-1,2,4-triazole-3,5-diamine] | – | 0.095 | > 100 | 0.366 | IC50 [9]: > 100 µM
6 | Cc1ccc(F)c(C(=O)n2nc(Nc3ccc(S(=O)(=O)NCCN(C)C)cc3)nc2N)c1F [Cpd 105, 4-[[5-amino-1-(2,6-difluoro-3-methylbenzoyl)-1H-1,2,4-triazol-3-yl]amino]-N-[2-(dimethylamino)ethyl]-benzenesulfonamide] | 0.276 | 0.845 | 9.6 | 0.046 | –
7 | Cc1cc(C)c(C(=O)n2nc(Nc3ccc(S(=O)(=O)NCCN(C)C)cc3)nc2N)s1 [Cpd 107, 4-[[5-amino-1-[(3,5-dimethyl-2-thienyl)carbonyl]-1H-1,2,4-triazol-3-yl]amino]-N-[2-(dimethylamino)ethyl]-benzenesulfonamide] | 0.032 | 0.03 | 0.936 | 0.014 | –
8 | Cc1cc(C)c(C(=O)n2nc(Nc3ccc(NS(C)(=O)=O)cc3)nc2N)s1 [Cpd 108, N-[4-[[5-amino-1-[(3,5-dimethyl-2-thienyl)carbonyl]-1H-1,2,4-triazol-3-yl]amino]phenyl]-methanesulfonamide] | – | – | > 100 | – | IC50 [10]: 0.81 µM; IC50 [1]: 221 nM; IC50 [2]: 259 nM; IC50 [3]: 76 nM
9 | Cc1ccsc1C(=O)n1nc(Nc2ccc(NS(C)(=O)=O)cc2)nc1N [Cpd 109, N-[4-[[5-amino-1-[(3-methyl-2-thienyl)carbonyl]-1H-1,2,4-triazol-3-yl]amino]phenyl]-methanesulfonamide] | 0.025 | 0.17 | > 100 | 0.147 | –
10 | Cc1ccc(F)c(C(=O)n2nc(Nc3ccc(N4CCNC4=O)cc3)nc2N)c1F [Cpd 114, 1-[4-[[5-amino-1-(2,6-difluoro-3-methylbenzoyl)-1H 1,2,4-triazol-3-yl]amino]phenyl]-2-imidazolidinone] | 0.313 | 1.39 | > 100 | 0.228 | –
11 | Nc1nc(Nc2ccc(N3CCNC3=O)cc2)nn1C(=O)c1c(F)cccc1F [Cpd 115, 1-[4-[[5-axnino-1-(2,6-difluorobenzoyl)-1H-1,2,4-triazol-3-yl]amino]phenyl]-2-imidazolidinone] | 0.467 | 1.44 | > 10 | 0.313 | –
12 | Nc1nc(Nc2ccc(N3CCCS3(=O)=O)cc2)nn1C(=O)c1c(F)cccc1F [Cpd 117, 1-(2,6-difluorobenzoyl)-N^3-[4-(1,1-dioxido-2-isothiazolidinyl)phenyl]-1H-1,2,4-triazole-3,5-diamine] | – | 5.44 | > 100 | 0.035 | –
13 | CCc1ccc(C(=O)n2nc(Nc3ccc(S(=O)(=O)Nc4ccccn4)cc3)nc2N)s1 [Cpd 119, 4-[[5-amino-1-[(5-ethyl-2-thienyl)carbonyl]-1H-1,2,4-triazol-3-yl]amino]-N-(2-pyridinyl)-benzenesulfonamide] | 0.057 | – | – | 0.067 | IC50 [9]: > 100 µM; IC50 [1]: 146 nM; IC50 [2]: 199 nM; IC50 [3]: 117 nM
14 | Cc1ccsc1C(=O)n1nc(Nc2ccc(S(=O)(=O)Nc3ccccn3)cc2)nc1N [Cpd 121, 4-[[5-amino-1-[(3-methyl-2-thienyl)carbonyl]-1H-1,2,4-triazol-3-yl]amino]-N-(2-pyridinyl)-benzenesulfonamide] | 0.027 | 0.717 | > 10 | 0.099 | –
15 | Nc1nc(Nc2cccc(Cl)c2)n(C(=O)c2c(F)cccc2F)n1 [Cpd 126, N^5-(3-chlorophenyl)-1-(2,6-difluorobenzoyl)-1H-1,2,4-triazole-3,5-diamine] | – | – | – | – | IC50 [11]: > 100 µM
16 | Nc1nc(Nc2cccc(Cl)c2)n(C(=O)c2ccccc2)n1 [Cpd 127, 1-benzoyl-N^5-(3-chlorophenyl)-1H-1,2,4-triazole-3,5-diamine] | – | – | – | – | IC50 [11]: > 100 µM
17 | Nc1nc(Nc2ccc(S(N)(=O)=O)cc2)n(C(=S)Nc2c(F)cccc2F)n1 [Cpd 128, 3-amino-5-[[4-(aminosulfonyl)phenyl]amino]-N-(2,6-difluorophenyl)-1H-1,2,4-triazole-1-carbothioamide] | – | 0.11 | > 100 | – | IC50 [1]: 128 nM; IC50 [2]: 968 nM; IC50 [3]: 910 nM
